Measurements: patent US20210251994A1, “INCREASING IMMUNE ACTIVITY THROUGH MODULATION OF POSTCELLULAR SIGNALING FACTORS” (FLAGSHIP PIONEERING INNOVATIONS V, INC., priority 2018, published 2021)
“Also recorded” adds a separate entry of the source.

Columns and labels:
IRF = IRF reporter activity in THP1-Dual monocytes co-cultured with treated A20 cells; format: cell-based, human; conditions: A20 cells treated 24 hours, then co-culture with THP1-Dual cells 24 hours; versus DMSO
Description: A20 B-cell leukemia cells were treated with either control (DMSO) or various doses of RSL3, for 24 hours prior to co-culture with THP1-Dual cells for an additional 24 hours. RSL3 was purchased from Selleckchem (Houston, Tex.) and dissolved in DMSO. Subsequently, the THP1 supernatants were assessed for NFKB or IRF reporter activity. A20 cells were acquired from ATCC and THP1-Dual cells acquired from InvivoGen (San Diego, Calif.). Both cell types were cultured in 96-well plates for the duration of the assay. 50,000 A20 cells were plated 24 hours prior to dosing with RSL3, with a final DMSO concentration of 0.5%. 24 hours post-treatment, THP1-Dual cells (25,000 cells/well) were added to the A20 cells. 24 hours later, 30 μl of supernatant was mixed with either 200 μl QuantiBlue (InvivoGen, San Diego, Calif.) or 50 μl QuantiLuc and absorbance or luminescence was recorded on a Molecular Devices plate reader.

[1] = test system: Jurkat T cell leukemia cells; assay: Viability of Jurkat T cell leukemia cells after treatment; format: cell-based; conditions: various doses, 24 hours treatment
RAS-expressing cells = conditions: knockdown studies; U.S. Pat. No. 8,546,421; cited from earlier work
[2] = test system: Caki-1 renal cell carcinoma cells; assay: Viability of Caki-1 renal cell carcinoma cells after treatment; format: cell-based; conditions: various doses, 24 hours treatment
Description: Caki-1 renal carcinoma cells were treated with either control (DMSO) or various doses (e.g. 0.002, 0.005, 0.014, 0.041, 0.123, 0.370, 1.111, 3.333 and 10 μM) of a GPX4 inhibitor (RSL3 or ML162) in the presence or absence of 1 μM Ferrostatin for 24 hours prior to co-culture with THP1-Dual cells for an additional 24 hours. […] Caki-1 cells were acquired from ATCC and THP1-Dual cells acquired from InvivoGen (San Diego, Calif.). Both cell types were cultured in 96-well plates for the duration of the assay.

A20 lymphoma cells = assay: Viability of A20 B-cell leukemia / lymphoma cells after treatment; format: cell-based; conditions: various doses, 24 hours treatment
NFKB [3] = assay: NFKB reporter activity in THP1-Dual monocytes co-cultured with treated Jurkat cells; format: cell-based, human; conditions: Jurkat cells treated 24 hours, then co-culture with THP1-Dual cells 24 hours; versus DMSO
Description: (§1) Jurkat T cell leukemia cells were treated with either control (DMSO) or various doses of RSL3, for 24 hours prior to co-culture with THP1-Dual cells for an additional 24 hours. RSL3 was purchased from Selleckchem (Houston, Tex.) and dissolved in DMSO. Subsequently, the THP1 supernatants were assessed for NFKB or IRF reporter activity.
(§2) Jurkat cells were acquired from ATCC and THP1-Dual cells acquired from InvivoGen (San Diego, Calif.). Both cell types were cultured in 96-well plates for the duration of the assay. 100,000 Jurkat cells were plated 24 hours prior to dosing with RSL3, with a final DMSO concentration of 0.5%. 24 hours post-treatment, THP1-Dual cells (25,000 cells/well) were added to the Jurkat cells. 24 hours later, 30 μl of supernatant was mixed with either 200 μl QuantiBlue (InvivoGen, San Diego, Calif.) or 50 μl QuantiLuc and absorbance or luminescence was recorded on a Molecular Devices plate reader.

NFKB [4] = assay: NFKB reporter activity in THP1-Dual monocytes co-cultured with treated A20 cells; format: cell-based, human; conditions: A20 cells treated 24 hours, then co-culture with THP1-Dual cells 24 hours; versus DMSO
Description: as §1, with “A20 B-cell” for “Jurkat T cell”
as §2, with “A20” for “Jurkat”, “50,000 A20” for “100,000 Jurkat”
A20 lymphoma cells were treated with various doses (e.g. 0.002, 0.005, 0.014, 0.041, 0.123, 0.370, 1.111, 3.333 and 10 μM) of a GPX4 inhibitor (RSL3, ML162 or ML210) in the presence or absence of 1 μM Ferrostatin-1 for 24 hours. ML162 was purchased from Cayman Chemical Company Inc and resuspended in DMSO. ML210 was purchased from Sigma-Aldrich and resuspended in DMSO. A20 lymphoma cells were also treated with DMSO as a negative control. After treatment with DMSO or a GPX4 inhibitor for 24 hours, the A20 lymphoma cells were co-cultured with THP1-Dual cells for an additional 24 hours. Subsequently, the THP1 supernatant was assessed for NFKB reporter activity. A20 cells were acquired from ATCC and THP1-Dual cells were acquired from InvivoGen (San Diego, Calif.). Both cell types were cultured in 96-well plates for the duration of the assay.

NFKB [5] = assay: NFKB reporter activity in THP1-Dual monocytes co-cultured with treated Caki-1 cells; format: cell-based, human; conditions: Caki-1 cells treated 24 hours, then co-culture with THP1-Dual cells 24 hours; versus DMSO
Description: as §1, with “Caki-1 renal” for “Jurkat T”, “carcinoma” for “leukemia”, “Erastin,” for “RSL3,”, “Erastin” for “RSL3”
as §2, with “Caki-1” for “Jurkat”, “7,500 Caki-1” for “100,000 Jurkat”, “Erastin,” for “RSL3,”, “(InvivoGen)” for “(InvivoGen, San Diego, Calif.)”
as §1, with “Caki-1 renal” for “Jurkat T”, “carcinoma” for “leukemia”, “Selleckchem” for “Selleckchem (Houston, Tex.)”
as §2, with “Caki-1” for “Jurkat”, “7,500 Caki-1” for “100,000 Jurkat”
Caki-1 renal carcinoma cells were treated with either control (DMSO) or various doses (e.g. 0.002, 0.005, 0.014, 0.041, 0.123, 0.370, 1.111, 3.333 and 10 μM) of a GPX4 inhibitor (RSL3 or ML162) in the presence or absence of 1 μM Ferrostatin for 24 hours prior to co-culture with THP1-Dual cells for an additional 24 hours. Subsequently, the THP1 supernatant was assessed for NFKB reporter activity. Caki-1 cells were acquired from ATCC and THP1-Dual cells acquired from InvivoGen (San Diego, Calif.). Both cell types were cultured in 96-well plates for the duration of the assay.

Structure (SMILES): COC(=O)c1ccc([C@H]2c3[nH]c4ccccc4c3C[C@H](C(=O)OC)N2C(=O)CCl)cc1 [RSL3]
- IRF signaling in THP1 monocytes (IRF): elicited
- viability of Jurkat T cell leukemia cells [1]: negatively affected the viability
- death of RAS-expressing cells (RAS-expressing cells): selectively mediated the death of RAS-expressing cells
- lipid ROS accumulation (RAS-expressing cells): increasing lipid ROS accumulation
- viability of Caki-1 cells [2]: negatively affected the viability; also recorded: decreased viability of the cells in a dose dependent manner
- viability of A20 cells (A20 lymphoma cells): negatively affected the viability; also recorded: decreased viability of the cells in a dose dependent manner
- NFKB signaling in THP1 monocytes (NFKB [3]): elicited NFKB signaling
- NFKB signaling/activity in THP1 monocytes (NFKB [4]): elicited; also recorded: increased NFKB activity in THP1 cells in a dose dependent manner
- NFKB signaling/activity in THP1 monocytes (NFKB [5]): elicited NFKB signaling; also recorded: increased NFKB activity in THP1 cells in a dose dependent manner
